Measured values as given in ChEMBL document CHEMBL1201862, “PubChem BioAssay data set” (2004).
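Following 48 hours of exposure in 96-well plates, responses at five concentrations were used to interpolate endpoints linearly. Abbreviation: GI50, concentration required for 50% inhibition of growth.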 Active and inactive are the calls of the source. Cut-off read from the data, not from the text of the source: active = GI50 up to about 1.1 µM and inactive = higher.

Assays:
Assay in all cases: NCI tumour cell line growth inhibition, 48 h
K562 = system: K562
SK-OV-3 = system: SK-OV-3
SN12C = system: SN12C
RXF 393 = system: RXF 393
UACC-257 = system: UACC-257
HCC 2998 = system: HCC 2998
NCI-H460 = system: NCI-H460
NCI-H522 = system: NCI-H522
Hs-578T = system: Hs-578T
NCI/ADR-RES = system: NCI/ADR-RES
SF-268 = system: SF-268
IGROV-1 = system: IGROV-1
Malme-3M = system: Malme-3M
HCT-15 = system: HCT-15
NCI-H23 = system: NCI-H23
HCT-116 = system: HCT-116
MDA-MB-435 = system: MDA-MB-435
T47D = system: T47D
PC-3 = system: PC-3

Measured: GI50

COc1c(OC)c(OC)c2c(=O)cc(-c3ccc(OC(C)C)cc3)oc2c1OC
inactive: K562 5.25 µM | SK-OV-3 > 35.7 µM | SN12C > 38.9 µM | RXF 393 > 33.5 µM | UACC-257 25.6 µM | HCC 2998 28.4 µM | NCI-H460 27.4 µM | NCI-H522 20.9 µM | Hs-578T 23.1 µM | NCI/ADR-RES 17.5 µM | SF-268 > 35.9 µM | IGROV-1 > 42.6 µM | Malme-3M 29.4 µM | NCI-H23 27.6 µM | HCT-116 10.8 µM | MDA-MB-435 26 µM | T47D 7.03 µM | PC-3 18.8 µM
19.4 µM: HCT-15

COc1cc(C2c3cc4c(cc3OC(N3CCOCC3)C2C)OCO4)cc(OC)c1OC (stereo not given)
active: K562 0.397 µM | RXF 393 0.282 µM | UACC-257 0.748 µM | NCI-H522 0.614 µM | Hs-578T 0.226 µM | NCI/ADR-RES 0.335 µM | HCT-116 0.65 µM | MDA-MB-435 0.179 µM | T47D 0.323 µM
inactive: SK-OV-3 3.27 µM | SN12C 4.18 µM | HCC 2998 1.23 µM | NCI-H460 1.34 µM | SF-268 10.5 µM | IGROV-1 1.31 µM | Malme-3M 3.79 µM | NCI-H23 1.38 µM | PC-3 1.19 µM
0.418 µM: HCT-15

CCCCN/N=N/c1cn(C2OC(CO)C(O)C2O)c(=O)[nH]c1=O (stereo not given)
inactive: SK-OV-3 > 100 µM | SN12C > 100 µM | RXF 393 > 100 µM | UACC-257 > 100 µM | HCC 2998 > 100 µM | NCI-H460 > 100 µM | NCI-H522 > 100 µM | Hs-578T > 100 µM | NCI/ADR-RES > 100 µM | SF-268 > 100 µM | IGROV-1 > 100 µM | Malme-3M > 100 µM | NCI-H23 > 100 µM | HCT-116 > 100 µM | MDA-MB-435 > 100 µM | T47D > 100 µM | PC-3 > 100 µM
> 100 µM: HCT-15

O=C1C=CC(=O)N1c1ccc2c(c1)Cc1cc(NC(=O)C(F)(F)F)ccc1-2
inactive: K562 9.25 µM | SK-OV-3 > 100 µM | SN12C 17.1 µM | RXF 393 5.66 µM | UACC-257 18 µM | HCC 2998 > 45.2 µM | NCI-H460 > 100 µM | NCI-H522 5.09 µM | Hs-578T 21.1 µM | NCI/ADR-RES 27.7 µM | SF-268 19.1 µM | IGROV-1 16.6 µM | Malme-3M 19.8 µM | NCI-H23 16.4 µM | HCT-116 7.36 µM | MDA-MB-435 17.4 µM | T47D 17.9 µM | PC-3 17.1 µM
10.6 µM: HCT-15

N#Cc1c(N2CCCC2)nsc1NCc1ccccc1
inactive: K562 > 100 µM | SK-OV-3 > 100 µM | SN12C > 100 µM | RXF 393 15 µM | UACC-257 > 100 µM | HCC 2998 > 100 µM | NCI-H460 > 100 µM | NCI-H522 > 100 µM | Hs-578T 60.4 µM | NCI/ADR-RES > 100 µM | SF-268 > 100 µM | IGROV-1 > 100 µM | Malme-3M > 100 µM | NCI-H23 > 100 µM | HCT-116 > 100 µM | MDA-MB-435 > 100 µM | T47D 74.6 µM | PC-3 > 100 µM
> 100 µM: HCT-15

[O-]c1c2cc(-[n+]3c(-c4ccccc4)cc(-c4ccccc4)cc3-c3ccccc3)cc1CO[C@@H](c1ccccc1)[C@H](c1ccccc1)OCCOCCO[C@@H](c1ccccc1)[C@H](c1ccccc1)OC2
0.319 µM: HCT-15
inactive: NCI/ADR-RES 1.14 µM
active: K562 0.0284 µM | SK-OV-3 0.0502 µM | SN12C 0.0398 µM | RXF 393 0.108 µM | UACC-257 0.106 µM | HCC 2998 0.181 µM | NCI-H460 0.0363 µM | NCI-H522 0.0264 µM | Hs-578T 0.0652 µM | SF-268 0.0635 µM | IGROV-1 0.0455 µM | Malme-3M 0.0407 µM | NCI-H23 0.0574 µM | HCT-116 0.0362 µM | MDA-MB-435 0.049 µM | T47D 0.0344 µM | PC-3 0.039 µM

CCCCCCCCCCCCCCCCOP(=O)([O-])OCC[N+](C)(C)C1CC(C)(C)N(O)C(C)(C)C1
inactive: SK-OV-3 > 100 µM | RXF 393 > 100 µM | UACC-257 > 100 µM | HCC 2998 > 100 µM | NCI-H460 > 100 µM | NCI-H522 > 100 µM | Hs-578T > 100 µM | NCI/ADR-RES > 100 µM | SF-268 > 100 µM | Malme-3M > 100 µM | NCI-H23 > 100 µM | HCT-116 > 100 µM | MDA-MB-435 > 100 µM | T47D > 100 µM | PC-3 > 100 µM
> 100 µM: HCT-15

CCOP(=O)(O)C(Nc1ccc(/N=N/c2ccccc2)cc1)c1cccc(C(Nc2ccc(/N=N/c3ccccc3)cc2)P(=O)(O)OCC)c1 (stereo not given)
inactive: K562 19 µM | SK-OV-3 81.3 µM | SN12C 52 µM | RXF 393 75.5 µM | UACC-257 57 µM | HCC 2998 25.2 µM | NCI-H460 33.3 µM | NCI-H522 20.8 µM | Hs-578T 38.7 µM | NCI/ADR-RES 76.9 µM | SF-268 69.8 µM | IGROV-1 56.5 µM | Malme-3M > 100 µM | NCI-H23 71.1 µM | HCT-116 56.6 µM | MDA-MB-435 58.7 µM | T47D 18.4 µM | PC-3 23.9 µM
24.8 µM: HCT-15

N#CC12C(=O)N3C(=NC(c4ccccc4)NC3c3ccccc3)C1(C#N)C(c1ccccc1)NC1=C2CCCC1 (stereo not given)
> 100 µM: HCT-15
inactive: K562 > 100 µM | SK-OV-3 > 100 µM | SN12C > 100 µM | RXF 393 > 100 µM | UACC-257 > 100 µM | HCC 2998 > 100 µM | NCI-H460 > 100 µM | NCI-H522 > 100 µM | Hs-578T > 100 µM | NCI/ADR-RES > 100 µM | SF-268 > 100 µM | IGROV-1 > 100 µM | Malme-3M > 100 µM | NCI-H23 > 100 µM | HCT-116 > 100 µM | MDA-MB-435 > 100 µM | T47D > 100 µM | PC-3 > 100 µM

CC(C)(C)c1cc[n+](C[n+]2ccc(C(C)(C)C)cc2)cc1
> 100 µM: HCT-15
inactive: K562 > 100 µM | SK-OV-3 > 100 µM | SN12C > 100 µM | RXF 393 > 100 µM | HCC 2998 > 100 µM | NCI-H460 > 100 µM | NCI-H522 > 100 µM | Hs-578T > 100 µM | NCI/ADR-RES > 100 µM | SF-268 > 100 µM | IGROV-1 > 100 µM | Malme-3M > 100 µM | NCI-H23 > 100 µM | HCT-116 > 100 µM | MDA-MB-435 > 100 µM | T47D > 100 µM | PC-3 > 100 µM

COC(CC1(CCNc2ccccc2)C(=O)N(COCC[Si](C)(C)C)c2ccccc21)OC (stereo not given)
16 µM: HCT-15
inactive: K562 8.41 µM | SK-OV-3 15.2 µM | SN12C 23.2 µM | RXF 393 12.5 µM | UACC-257 11.7 µM | HCC 2998 2.11 µM | NCI-H460 15 µM | NCI-H522 11.9 µM | Hs-578T 18 µM | NCI/ADR-RES 17.1 µM | SF-268 11.6 µM | IGROV-1 9.66 µM | NCI-H23 16.5 µM | HCT-116 13.9 µM | MDA-MB-435 13.3 µM | T47D 20.3 µM | PC-3 11.8 µM

COC1(O)C(=O)c2ccccc2OC1(OC)c1ccccc1 (stereo not given)
31.8 µM: HCT-15
inactive: K562 42 µM | SN12C > 100 µM | RXF 393 > 100 µM | UACC-257 > 100 µM | HCC 2998 > 100 µM | NCI-H460 40.4 µM | NCI-H522 > 100 µM | Hs-578T > 100 µM | NCI/ADR-RES 77.8 µM | SF-268 > 100 µM | IGROV-1 > 100 µM | Malme-3M > 100 µM | NCI-H23 > 100 µM | HCT-116 > 100 µM | MDA-MB-435 > 100 µM | T47D > 100 µM | PC-3 > 100 µM

COc1ccccc1Cn1nc(OC)c2cc([N+](=O)[O-])ccc21
> 70.1 µM: HCT-15
inactive: K562 > 100 µM | SN12C > 69 µM | RXF 393 1.88 µM | UACC-257 > 74 µM | HCC 2998 > 100 µM | NCI-H460 66.7 µM | NCI-H522 17.9 µM | Hs-578T 3.61 µM | NCI/ADR-RES 59.3 µM | SF-268 13.1 µM | IGROV-1 34.8 µM | Malme-3M > 87.5 µM | NCI-H23 35.6 µM | HCT-116 32.7 µM | MDA-MB-435 > 71 µM | T47D > 100 µM | PC-3 > 100 µM

O=[N+]([O-])c1cc2no[n+]([O-])c2cc1N1CCCCC1
3.21 µM: HCT-15
inactive: K562 1.43 µM | SK-OV-3 14 µM | SN12C 1.99 µM | RXF 393 1.51 µM | UACC-257 8.24 µM | HCC 2998 13.2 µM | NCI-H460 15.6 µM | NCI-H522 1.48 µM | Hs-578T 25.1 µM | NCI/ADR-RES 3.15 µM | SF-268 8.18 µM | IGROV-1 3.21 µM | NCI-H23 12.5 µM | HCT-116 1.93 µM | MDA-MB-435 2.87 µM | T47D 1.39 µM | PC-3 2.16 µM

CN(/N=C/c1ccccn1)C1=NCCCN1
inactive: K562 > 100 µM | SK-OV-3 > 100 µM | RXF 393 > 100 µM | UACC-257 > 100 µM | HCC 2998 > 100 µM | NCI-H460 > 100 µM | NCI-H522 > 100 µM | Hs-578T > 100 µM | NCI/ADR-RES > 100 µM | SF-268 > 100 µM | IGROV-1 > 100 µM | Malme-3M > 100 µM | NCI-H23 > 100 µM | HCT-116 > 100 µM | MDA-MB-435 > 100 µM | T47D > 100 µM | PC-3 > 100 µM
> 100 µM: HCT-15
